Source: article PMC11905336, “Pyrrole‐Tethered Bisbenzoxazole Derivatives: Apoptosis‐Inducing Agents Targeting Breast Cancer Cells” (Chemical Biology & Drug Design, 2025)

Each compound was assayed on HDFa cell lines (assay: Cytotoxicity on healthy dermal fibroblasts (MTT / xCELLigence real-time cell analysis)). Details: Homo sapiens, 24 h, values greater than 100 not calculated, read-out: IC50 (μM) for HDFa cell lines, 24 h.
Assay type: cell-based
Method: The cytotoxicity of these derivatives was also assessed in dermal fibroblast cells using xCELLigence analysis as detailed in the Supporting Information.
(§1) The human dermal fibroblast (HDFa) and human breast cancer cells (MCF‐7) were obtained from the American Type Culture Collection (ATCC; Manassas, VA, USA). Cells were cultured in RPMI medium (MCF‐7) and DMEM medium (HDFa) was supplemented with 10% FBS, 1% penicillin–streptomycin, 1% amphotericin, and 2.5% L‐glutamine at 37°C in a 5% CO2 incubator.
xCELLigence Real‐Time Cell Analysis. The xCELLigence system (Real‐Time Cell Analyzer (RTCA) Dual Plate (DP) (Roche Diagnostics GmbH, Penzberg)) was used for real‐time monitoring of cell viability without the need for labeling. A total of 1 × 10^4 HDFa cells were seeded into each well of the E‐plate, and the cell proliferation curve was monitored for 24 h. […] The Cell Index (CI) value was automatically measured every hour for each well using RTCA Software (version 1.2.1) (Yetkin et al. [2021]; Yıldırım et al. [2022]).

| SMILES | IC50 |
| --- | --- |
| Cc1ccc2nc(-c3ccc(-c4nc5ccccc5o4)[nH]3)oc2c1 [Compound B7, 2‐(5‐(Benzo[d]Oxazol‐2‐Yl)‐1H‐Pyrrol‐2‐Yl)‐6‐Methylbenzo[d]Oxazole] | 97.3 ± 1.06 µM |
| Clc1ccc2oc(-c3ccc(-c4nc5ccccc5o4)[nH]3)nc2c1 [Compound B9, 2‐(5‐(Benzo[d]Oxazol‐2‐Yl)‐1H‐Pyrrol‐2‐Yl)‐5‐Chlorobenzo[d]Oxazole] | 95.4 ± 1.29 µM |
| COC(=O)c1ccc2nc(-c3ccc(-c4nc5ccccc5o4)[nH]3)oc2c1 [Compound B10, Methyl 2‐(5‐(Benzo[d]Oxazol‐2‐Yl)‐1H‐Pyrrol‐2‐Yl)benzo[d]Oxazole‐6‐Carboxylate] | 97.2 ± 1.76 µM |
| Cc1ccc2oc(-c3ccc(-c4nc5ccc(C)cc5o4)[nH]3)nc2c1 [Compound B11, 6‐Methyl‐2‐(5‐(5‐Methylbenzo[d]Oxazol‐2‐Yl)‐1H‐Pyrrol‐2‐Yl)benzo[d]Oxazole] | 95.3 ± 1.65 µM |
| COc1ccc2oc(-c3ccc(-c4nc5cc(C)ccc5o4)[nH]3)nc2c1 [Compound B12, 5‐Methoxy‐2‐(5‐(5‐Methylbenzo[d]Oxazol‐2‐Yl)‐1H‐Pyrrol‐2‐Yl)benzo[d]Oxazole] | ≥ 100 µM |
| Cc1ccc2oc(-c3ccc(-c4nc5cc(Cl)ccc5o4)[nH]3)nc2c1 [Compound B13, 5‐Chloro‐2‐(5‐(5‐Methylbenzo[d]Oxazol‐2‐Yl)‐1H‐Pyrrol‐2‐Yl)benzo[d]Oxazole] | ≥ 100 µM |

Same assay, conditions: Homo sapiens, 72 h, values greater than 100 not calculated, read-out: IC50 (μM) for HDFa cell lines, 72 h

| SMILES | IC50 |
| --- | --- |
| Cc1ccc2nc(-c3ccc(-c4nc5ccccc5o4)[nH]3)oc2c1 [Compound B7, 2‐(5‐(Benzo[d]Oxazol‐2‐Yl)‐1H‐Pyrrol‐2‐Yl)‐6‐Methylbenzo[d]Oxazole] | 100 ± 1.03 µM |
| Clc1ccc2oc(-c3ccc(-c4nc5ccccc5o4)[nH]3)nc2c1 [Compound B9, 2‐(5‐(Benzo[d]Oxazol‐2‐Yl)‐1H‐Pyrrol‐2‐Yl)‐5‐Chlorobenzo[d]Oxazole] | 101 ± 1.38 µM |
| COC(=O)c1ccc2nc(-c3ccc(-c4nc5ccccc5o4)[nH]3)oc2c1 [Compound B10, Methyl 2‐(5‐(Benzo[d]Oxazol‐2‐Yl)‐1H‐Pyrrol‐2‐Yl)benzo[d]Oxazole‐6‐Carboxylate] | 99.9 ± 1.65 µM |
| Cc1ccc2oc(-c3ccc(-c4nc5ccc(C)cc5o4)[nH]3)nc2c1 [Compound B11, 6‐Methyl‐2‐(5‐(5‐Methylbenzo[d]Oxazol‐2‐Yl)‐1H‐Pyrrol‐2‐Yl)benzo[d]Oxazole] | 99.4 ± 1.23 µM |
| COc1ccc2oc(-c3ccc(-c4nc5cc(C)ccc5o4)[nH]3)nc2c1 [Compound B12, 5‐Methoxy‐2‐(5‐(5‐Methylbenzo[d]Oxazol‐2‐Yl)‐1H‐Pyrrol‐2‐Yl)benzo[d]Oxazole] | ≥ 100 µM |
| Cc1ccc2oc(-c3ccc(-c4nc5cc(Cl)ccc5o4)[nH]3)nc2c1 [Compound B13, 5‐Chloro‐2‐(5‐(5‐Methylbenzo[d]Oxazol‐2‐Yl)‐1H‐Pyrrol‐2‐Yl)benzo[d]Oxazole] | ≥ 100 µM |

Same assay, conditions: Homo sapiens, read-out: IC50 (μM) for HDFa cell lines, 48 h, values greater than 100 not calculated

| SMILES | IC50 |
| --- | --- |
| Cc1ccc2nc(-c3ccc(-c4nc5ccccc5o4)[nH]3)oc2c1 [Compound B7, 2‐(5‐(Benzo[d]Oxazol‐2‐Yl)‐1H‐Pyrrol‐2‐Yl)‐6‐Methylbenzo[d]Oxazole] | 98.5 ± 2 µM |
| Clc1ccc2oc(-c3ccc(-c4nc5ccccc5o4)[nH]3)nc2c1 [Compound B9, 2‐(5‐(Benzo[d]Oxazol‐2‐Yl)‐1H‐Pyrrol‐2‐Yl)‐5‐Chlorobenzo[d]Oxazole] | 97.5 ± 1.99 µM |
| COC(=O)c1ccc2nc(-c3ccc(-c4nc5ccccc5o4)[nH]3)oc2c1 [Compound B10, Methyl 2‐(5‐(Benzo[d]Oxazol‐2‐Yl)‐1H‐Pyrrol‐2‐Yl)benzo[d]Oxazole‐6‐Carboxylate] | 99.3 ± 1.34 µM |
| Cc1ccc2oc(-c3ccc(-c4nc5ccc(C)cc5o4)[nH]3)nc2c1 [Compound B11, 6‐Methyl‐2‐(5‐(5‐Methylbenzo[d]Oxazol‐2‐Yl)‐1H‐Pyrrol‐2‐Yl)benzo[d]Oxazole] | 97.4 ± 1.47 µM |
| COc1ccc2oc(-c3ccc(-c4nc5cc(C)ccc5o4)[nH]3)nc2c1 [Compound B12, 5‐Methoxy‐2‐(5‐(5‐Methylbenzo[d]Oxazol‐2‐Yl)‐1H‐Pyrrol‐2‐Yl)benzo[d]Oxazole] | ≥ 100 µM |
| Cc1ccc2oc(-c3ccc(-c4nc5cc(Cl)ccc5o4)[nH]3)nc2c1 [Compound B13, 5‐Chloro‐2‐(5‐(5‐Methylbenzo[d]Oxazol‐2‐Yl)‐1H‐Pyrrol‐2‐Yl)benzo[d]Oxazole] | ≥ 100 µM |

These compounds were tested on MCF‐7 cell lines (assay: MTT assay, cytotoxicity on MCF-7 cells). Details: Homo sapiens, MCF7, read-out: IC50 (μM) for MCF‐7 cell lines; MTT, 48 h.
Assay type: cell-based, human
Method: The cytotoxic effects of PTB derivatives on MCF‐7 breast cancer cells were evaluated using the MTT assay at various concentrations (100 nM, 1 μM, 10 μM, 50 μM, and 100 μM).
as §1
MTT Method. The MTT method is used to detect and quantify living organisms cultured with the method colorimetrically. This method relies on intact mitochondria cleaving the tetrazolium ring of the MTT dye. The MTT substance is absorbed and reduced to a colorful, water‐insoluble formazan by a mitochondria‐dependent reaction. Cell viability is measured based on the MTT reduction property, and the density of dye obtained from MTT analysis indicates the number of viable cells. In this study, cell viability was assessed using the MTT (0.5 mg/mL) solution that was added to each well. […] After adding properties to cultures, they were kept at 37°C for 24 h and overnight. Then, at 48 and 72 h after applying the molecules, 10 μL of MTT was added to each well and incubated under similar conditions for 4 h. Absorbance spectrophotometry was performed at a wavelength of 570 nm using the IC50 = [(control absorbents‐sample absorbents)/control absorbents] × 100 calculation method (Khorsandi et al. [2017]).

| SMILES | IC50 |
| --- | --- |
| Cc1ccc2nc(-c3ccc(-c4nc5ccccc5o4)[nH]3)oc2c1 [Compound B7, 2‐(5‐(Benzo[d]Oxazol‐2‐Yl)‐1H‐Pyrrol‐2‐Yl)‐6‐Methylbenzo[d]Oxazole] | 4.68 ± 0.98 µM |
| Clc1ccc2oc(-c3ccc(-c4nc5ccccc5o4)[nH]3)nc2c1 [Compound B9, 2‐(5‐(Benzo[d]Oxazol‐2‐Yl)‐1H‐Pyrrol‐2‐Yl)‐5‐Chlorobenzo[d]Oxazole] | 3.23 ± 0.63 µM |
| COC(=O)c1ccc2nc(-c3ccc(-c4nc5ccccc5o4)[nH]3)oc2c1 [Compound B10, Methyl 2‐(5‐(Benzo[d]Oxazol‐2‐Yl)‐1H‐Pyrrol‐2‐Yl)benzo[d]Oxazole‐6‐Carboxylate] | 2.88 ± 0.45 µM |
| Cc1ccc2oc(-c3ccc(-c4nc5ccc(C)cc5o4)[nH]3)nc2c1 [Compound B11, 6‐Methyl‐2‐(5‐(5‐Methylbenzo[d]Oxazol‐2‐Yl)‐1H‐Pyrrol‐2‐Yl)benzo[d]Oxazole] | 3.49 ± 0.68 µM |
| COc1ccc2oc(-c3ccc(-c4nc5cc(C)ccc5o4)[nH]3)nc2c1 [Compound B12, 5‐Methoxy‐2‐(5‐(5‐Methylbenzo[d]Oxazol‐2‐Yl)‐1H‐Pyrrol‐2‐Yl)benzo[d]Oxazole] | 3.49 ± 0.46 µM |
| Cc1ccc2oc(-c3ccc(-c4nc5cc(Cl)ccc5o4)[nH]3)nc2c1 [Compound B13, 5‐Chloro‐2‐(5‐(5‐Methylbenzo[d]Oxazol‐2‐Yl)‐1H‐Pyrrol‐2‐Yl)benzo[d]Oxazole] | 3.6 ± 0.56 µM |

Same assay, conditions: Homo sapiens, MCF7; MTT, 24 h; read-out: IC50 (μM) for MCF‐7 cell lines, 24 h

| SMILES | IC50 |
| --- | --- |
| Cc1ccc2nc(-c3ccc(-c4nc5ccccc5o4)[nH]3)oc2c1 [Compound B7, 2‐(5‐(Benzo[d]Oxazol‐2‐Yl)‐1H‐Pyrrol‐2‐Yl)‐6‐Methylbenzo[d]Oxazole] | 4.08 ± 1.23 µM |
| Clc1ccc2oc(-c3ccc(-c4nc5ccccc5o4)[nH]3)nc2c1 [Compound B9, 2‐(5‐(Benzo[d]Oxazol‐2‐Yl)‐1H‐Pyrrol‐2‐Yl)‐5‐Chlorobenzo[d]Oxazole] | 3.84 ± 1.12 µM |
| COC(=O)c1ccc2nc(-c3ccc(-c4nc5ccccc5o4)[nH]3)oc2c1 [Compound B10, Methyl 2‐(5‐(Benzo[d]Oxazol‐2‐Yl)‐1H‐Pyrrol‐2‐Yl)benzo[d]Oxazole‐6‐Carboxylate] | 3.66 ± 1.34 µM |
| Cc1ccc2oc(-c3ccc(-c4nc5ccc(C)cc5o4)[nH]3)nc2c1 [Compound B11, 6‐Methyl‐2‐(5‐(5‐Methylbenzo[d]Oxazol‐2‐Yl)‐1H‐Pyrrol‐2‐Yl)benzo[d]Oxazole] | 4.55 ± 0.09 µM |
| COc1ccc2oc(-c3ccc(-c4nc5cc(C)ccc5o4)[nH]3)nc2c1 [Compound B12, 5‐Methoxy‐2‐(5‐(5‐Methylbenzo[d]Oxazol‐2‐Yl)‐1H‐Pyrrol‐2‐Yl)benzo[d]Oxazole] | 3.88 ± 0.23 µM |
| Cc1ccc2oc(-c3ccc(-c4nc5cc(Cl)ccc5o4)[nH]3)nc2c1 [Compound B13, 5‐Chloro‐2‐(5‐(5‐Methylbenzo[d]Oxazol‐2‐Yl)‐1H‐Pyrrol‐2‐Yl)benzo[d]Oxazole] | 3.43 ± 1.56 µM |

Same assay, conditions: Homo sapiens, MCF7; MTT, 72 h; read-out: IC50 (μM) for MCF‐7 cell lines, 72 h

| SMILES | IC50 |
| --- | --- |
| Cc1ccc2nc(-c3ccc(-c4nc5ccccc5o4)[nH]3)oc2c1 [Compound B7, 2‐(5‐(Benzo[d]Oxazol‐2‐Yl)‐1H‐Pyrrol‐2‐Yl)‐6‐Methylbenzo[d]Oxazole] | 2.53 ± 1.82 µM |
| Clc1ccc2oc(-c3ccc(-c4nc5ccccc5o4)[nH]3)nc2c1 [Compound B9, 2‐(5‐(Benzo[d]Oxazol‐2‐Yl)‐1H‐Pyrrol‐2‐Yl)‐5‐Chlorobenzo[d]Oxazole] | 2.77 ± 1.23 µM |
| COC(=O)c1ccc2nc(-c3ccc(-c4nc5ccccc5o4)[nH]3)oc2c1 [Compound B10, Methyl 2‐(5‐(Benzo[d]Oxazol‐2‐Yl)‐1H‐Pyrrol‐2‐Yl)benzo[d]Oxazole‐6‐Carboxylate] | 2.44 ± 2.11 µM |
| Cc1ccc2oc(-c3ccc(-c4nc5ccc(C)cc5o4)[nH]3)nc2c1 [Compound B11, 6‐Methyl‐2‐(5‐(5‐Methylbenzo[d]Oxazol‐2‐Yl)‐1H‐Pyrrol‐2‐Yl)benzo[d]Oxazole] | 2.44 ± 1.19 µM |
| COc1ccc2oc(-c3ccc(-c4nc5cc(C)ccc5o4)[nH]3)nc2c1 [Compound B12, 5‐Methoxy‐2‐(5‐(5‐Methylbenzo[d]Oxazol‐2‐Yl)‐1H‐Pyrrol‐2‐Yl)benzo[d]Oxazole] | 3.11 ± 0.87 µM |
| Cc1ccc2oc(-c3ccc(-c4nc5cc(Cl)ccc5o4)[nH]3)nc2c1 [Compound B13, 5‐Chloro‐2‐(5‐(5‐Methylbenzo[d]Oxazol‐2‐Yl)‐1H‐Pyrrol‐2‐Yl)benzo[d]Oxazole] | 3.28 ± 1.36 µM |
